# According to article PMC6692079 (Journal of medicinal chemistry, 2018):
# Entries after “also recorded” stand apart in the source; their conditions may differ. Structures can show the parent of a compound that is named as a salt. Where two headings read alike, the source gives them in different places.
# Assays:
# [1] = target: T1, human δ opioid receptor (Homo sapiens, UniProt P41143); experiment: biochemical
# [2] = target: T2, human κ opioid receptor (Homo sapiens, UniProt P41145); experiment: biochemical; format: biochemical; conditions: for δ/κ: selectivity for κ relative to δ
# [3] = target: T2, human κ opioid receptor; conditions: cloned human receptor, cited from earlier work
# [4] = target: T1, human δ opioid receptor; conditions: cloned human receptor, cited from earlier work
# [5] = target: T3, human μ opioid receptor (Homo sapiens, UniProt P35372); experiment: biochemical
# [6] = Pharmacokinetics in plasma and brain after a single sc dose; format: in vivo, Male Sprague—Dawley rats; conditions: 5 mg/kg sc
# [7] = target: T3, human μ opioid receptor; conditions: cloned human receptor; cited from earlier work
# [8] = 5 mg/kg in male rats, cited from earlier work
# T2 sequence (P41145 whole entry): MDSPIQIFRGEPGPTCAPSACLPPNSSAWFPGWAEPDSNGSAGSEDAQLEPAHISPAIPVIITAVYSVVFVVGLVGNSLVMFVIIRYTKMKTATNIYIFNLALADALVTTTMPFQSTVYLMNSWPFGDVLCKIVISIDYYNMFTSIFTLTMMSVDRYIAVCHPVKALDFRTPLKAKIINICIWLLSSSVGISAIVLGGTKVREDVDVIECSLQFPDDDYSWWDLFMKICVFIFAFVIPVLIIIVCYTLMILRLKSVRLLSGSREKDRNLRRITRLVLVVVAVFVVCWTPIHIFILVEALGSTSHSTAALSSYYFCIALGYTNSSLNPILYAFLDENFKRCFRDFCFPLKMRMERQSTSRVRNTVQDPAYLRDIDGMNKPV
# T3 sequence (P35372 whole entry): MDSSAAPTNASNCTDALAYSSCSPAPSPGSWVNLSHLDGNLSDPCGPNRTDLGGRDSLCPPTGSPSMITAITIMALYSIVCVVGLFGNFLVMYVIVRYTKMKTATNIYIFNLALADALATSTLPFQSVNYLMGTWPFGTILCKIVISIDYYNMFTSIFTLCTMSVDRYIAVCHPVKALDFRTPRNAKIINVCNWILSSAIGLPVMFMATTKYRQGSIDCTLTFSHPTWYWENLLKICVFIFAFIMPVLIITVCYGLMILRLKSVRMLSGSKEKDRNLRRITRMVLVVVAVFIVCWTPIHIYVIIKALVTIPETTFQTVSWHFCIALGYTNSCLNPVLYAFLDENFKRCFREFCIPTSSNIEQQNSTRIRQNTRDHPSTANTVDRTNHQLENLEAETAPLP
# T1 sequence (P41143 whole entry): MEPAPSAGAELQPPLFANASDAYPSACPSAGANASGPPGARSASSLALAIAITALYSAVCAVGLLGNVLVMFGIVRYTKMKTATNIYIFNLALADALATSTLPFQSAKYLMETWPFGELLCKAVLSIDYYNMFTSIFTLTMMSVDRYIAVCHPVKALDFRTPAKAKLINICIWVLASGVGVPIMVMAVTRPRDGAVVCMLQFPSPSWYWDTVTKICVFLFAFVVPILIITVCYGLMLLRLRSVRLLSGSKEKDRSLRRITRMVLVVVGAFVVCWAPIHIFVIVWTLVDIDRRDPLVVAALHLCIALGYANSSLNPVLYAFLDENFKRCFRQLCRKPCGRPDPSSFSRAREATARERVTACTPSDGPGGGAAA
Compound,Kb [1],δ/κ ([2]; ratio of Ke values),other results
"CC(C)[C@@H](CN1CCCCC1C)NC(=O)[C@H]1Cc2ccc(O)cc2CN1 (mixture of isomers) [Compound 14, (3R)-7-Hydroxy-N-{(1S)-2-methyl-1-[((2RS)-2-methylpiperidin-1-yl)methyl]propyl}−1,2,3,4-tetrahydroisoquinoline-3-carboxamide Dihydrochloride]",> 3 µM,>199,
"CC(C)[C@@H](CN1CCCCC1)NC(=O)[C@H]1Cc2ccc(O)cc2CN1 [Compound 1, (3R)‑7-Hydroxy‑N‑[(1S)‑2-methyl-1-(piperidin-1-ylmethyl)propyl]-1,2,3,4-tetrahydroisoquinoline-3-carboxamide]",,,"Ke κ, U69,593 ([3]; previously reported): 6.80 ± 2.1 nM; Ke δ, DPDPE ([4]; previously reported): >3000 nM"
"CC(C)[C@@H](CN1CCOCC1)NC(=O)[C@H]1Cc2ccc(O)cc2CN1 [Compound 6, (3R)-7-Hydroxy-N-[(1S)-2-methyl-1-(morpholin-4-ylmethyl)-propyl]-1,2,3,4-tetrahydroisoquinoline-3-carboxamide Dihydrochloride]",> 3 µM,,
"CC(C)[C@@H](CN1CCN(C)CC1)NC(=O)[C@H]1Cc2ccc(O)cc2CN1 [Compound 7, (3R)-7-Hydroxy-N-{(1S)-2-methyl-1-[(4-methylpiperizin-1-yl)-methyl]propyl}−1,2,3,4-tetrahydroisoquinoline-3-carboxamide Trihydrochloride]",> 3 µM,>30,
"CCN(CC)C[C@@H](NC(=O)[C@H]1Cc2ccc(O)cc2CN1)C(C)C [Compound 8, (3R)-N-{(1S)-1-[(4,4-Diethylamino)methyl]-2-methylpropyl]-7-hydroxy-1,2,3,4-tetrahydroisoquinoline-3-carboxamide Dihydrochloride]",> 3 µM,>72,Kb [2]: 0.0418 ± 0.012 µM; Kb [5]: 0.69 ± 0.11 µM
"CC(C)CN(CC(C)C)C[C@@H](NC(=O)[C@H]1Cc2ccc(O)cc2CN1)C(C)C [Compound 10, (3R)-N-{(1S)-1-{[Bis(2-methylpropyl)amino]methyl}−2-methyl-propyl]-7-hydroxy-1,2,3,4-tetrahydroisoquinoline-3-carboxamide Dihydrochloride]",> 3 µM,,
"CC1CCN(C[C@@H](NC(=O)[C@H]2Cc3ccc(O)cc3CN2)C(C)C)CC1 [Compound 12, (3R)-7-Hydroxy-N-{(1S)-2-methyl-1-[(4-methylpiperidin-1-yl)-methyl]propyl}−1,2,3,4-tetrahydroisoquinoline-3-carboxamide Dihydrochloride]",> 3 µM,,"persistence in plasma and brain post dose ([6]; last sampling time): 168 h; clearance ([6]; plasma): 43.75 mL/min/kg; brain penetration ([6]; rats, 5 mg/kg): does indeed penetrate the brain; also recorded: crossed the blood—brain barrier; also recorded: did indeed readily penetrate the brain"
"CC(C)[C@@H](CN1CCC(C)(C)CC1)NC(=O)[C@H]1Cc2ccc(O)cc2CN1 [Compound 18, (3R)-N-{(1S)-1-[(4,4-Dimethylpiperidin-1-yl)methyl]-2-methylpropyl}−7-hydroxy-1,2,3,4-tetrahydroisoquinoline-3-carboxamide Dihydrochloride]",,,Kb [2]: 0.00357 ± 0.0015 µM
"CC(C)[C@@H](CN1CCC(C(F)(F)F)CC1)NC(=O)[C@H]1Cc2ccc(O)cc2CN1 [Compound 20, (3R)-7-Hydroxy-N-[(1S)-2-methyl-1-{[4-(trifluoromethyl)-piperidin-1-yl]methyl}propyl]-1,2,3,4-tetrahydroisoquinoline-3-carboxamide Dihydrochloride]",> 3 µM,>640,
"COC1CCN(C[C@@H](NC(=O)[C@H]2Cc3ccc(O)cc3CN2)C(C)C)CC1 [Compound 22, (3R)-7-Hydroxy-N-{(1S)-2-methyl-1-[(4-methoxypiperidin-1-yl)-methyl]propyl}−1,2,3,4-tetrahydroisoquinoline-3-carboxamide Dihydrochloride]",> 3 µM,>459,
"CC(C)[C@@H](CN1CCC(N(C)C)CC1)NC(=O)[C@H]1Cc2ccc(O)cc2CN1 [Compound 23, (3R)-N-[(1S)-1-{[4-(Dimethylamino)piperidin-1-yl]methyl}−2-methylpropyl]-7-hydroxy-1,2,3,4-tetrahydroisoquinoline-3-carboxamide Trihydrochloride]",> 3 µM,>371,
"CC(C)[C@@H](CN1CCC(F)(F)CC1)NC(=O)[C@H]1Cc2ccc(O)cc2CN1 [Compound 24, (3R)-N-{[(1S)-1-[4,4-Difluoropiperidin-1-yl]methyl]-2-methyl-propyl}−7-hydroxy-1,2,3,4-tetrahydroisoquinoline-3-carboxamide Dihydrochloride]",> 3 µM,>254,
"CC(C)[C@@H](CN1CCC(C#N)CC1)NC(=O)[C@H]1Cc2ccc(O)cc2CN1 [Compound 25, (3R)-N-{(1S)-1-[(4-Cyanopiperidin-1-yl)methyl]-2-methylprolyl}−7-hydroxy-1,2,3,4-tetrahydroisoquinoline-3-carboxamide Dihydrochloride]",> 3 µM,>236,
CC(C)[C@@H](CN1CCC(C(N)=O)CC1)NC(=O)[C@H]1Cc2ccc(O)cc2CN1 [Compound 26],> 3 µM,>932,
"CC1CCN(C[C@@H](NC(=O)[C@H](N)Cc2ccc(O)cc2)C(C)C)CC1 [Compound 36, N-{(1S)-2-Methyl-1-[(4-methylpiperidin-1-yl)methyl]propyl}-D-ty-rosinamide Dihydrochloride]",> 3 µM,>8,"Kb [2]: 0.387 ± 0.089 µM; fold loss in κ opioid receptor antagonist potency relative to 12 [2]: over 1000; μ/κ ([2]; ratio of Ke values, selectivity for κ relative to μ): >8; Kb [5]: > 3 µM"
"CC(C)[C@@H](CN1CC[C@@](C)(c2cccc(O)c2)[C@@H](C)C1)NC(=O)[C@H]1Cc2ccc(O)cc2CN1C [Compound 46, reference compound]",,,"Ke μ, DAMGO [7]: 210 ± 60 nM; Ke κ, U69,593 [3]: 0.16 ± 0.06 nM; Ke δ, DPDPE [4]: 491 ± 120 nM"
"CC(C)[C@@H](CN1CC[C@@](C)(c2cccc(O)c2)[C@@H](C)C1)NC(=O)[C@H]1Cc2ccc(O)cc2CN1 [JDTic, (3R)-1,2,3,4-tetrahydro-7-hydroxy-N-[(1S)-1-[[(3R,4R)-4-(3-hydroxy-phenyl)-3,4-dimethyl-1-piperidinyl]methyl]-2-methylpropyl]-3-iso-quinolinecarboxamide]",,,half-life ([8]; brain): 51.8 h; half-life ([8]; plasma): 28.4 h
